From patent US8993542B2, “Methods of treating viral infections” (priority 2008, dated 2015)
pIC50: −log10 of the molar value.

Assays:
[1] = test system: HIV; test: microbe, parasite or virus in culture; assay type: cell-based
[2] = test system: HIV-1IIIB; test: Two-drug combination antiviral assay in CEM cells (CPE), MacSynergy II; assay type: cell-based; conditions: for Antagonism Volume, Result 1 / Antagonism Volume, Result 2 / Antagonism Volume, Result 3 / Mean Antagonism Volume (n = 3) / Mean Synergy Volume (n = 3) / Synergy Volume, Result 1 / Synergy Volume, Result 2 / Synergy Volume, Result 3: in combination with CMX157, CEM-SS cells, 95% confidence
[3] = Human immunodeficiency virus 1, PANEL 2, WT
[4] = Human immunodeficiency virus 1, PANEL 3, 6 TAMs, no 184
[5] = Human immunodeficiency virus 1, PANEL 6, 6 TAMs + 184
[6] = Human immunodeficiency virus 1, PANEL 7, 184V
[7] = Human immunodeficiency virus 1, PANEL 9, 69ins, no 184
[8] = Human immunodeficiency virus 1, PANEL 12, 69ins + 184
[9] = Human immunodeficiency virus 1, PANEL 14, 65R, no 184
[10] = Human immunodeficiency virus 1, PANEL 15, 65R + 184V
[11] = Human immunodeficiency virus 1, PANEL 17, L74V
[12] = Human immunodeficiency virus 1, PANEL 19, L74V + M184V
[13] = Human immunodeficiency virus 1, PANEL 26, 151M, no 184
[14] = Human immunodeficiency virus 1, PANEL 28, 151M + 184
[15] = Human immunodeficiency virus 1, PANEL 29, L74V − SDM
[16] = Human immunodeficiency virus 1, PANEL 30, M184V − SDM
[17] = Human immunodeficiency virus 1, PANEL 31, K65R − SDM
[18] = Human immunodeficiency virus 1, PANEL 33, T215Y
[19] = Human immunodeficiency virus 1, PANEL 34, T215Y + M184V
[20] = Human immunodeficiency virus 1, PANEL 35, M41L + T215Y
[21] = Human immunodeficiency virus 1, PANEL 37, M41L + T215Y + M184V
[22] = Human immunodeficiency virus 1, PANEL 38, M41L + L210W + T215Y
[23] = Human immunodeficiency virus 1, PANEL 39, M41L + L210W + T215Y
[24] = Human immunodeficiency virus 1, PANEL 40, M41L + L210W + T215Y + M184V
[25] = Human immunodeficiency virus 1, PANEL 41, M41L + L210W + T215Y + M184V
[26] = Human immunodeficiency virus 1, PANEL 42, D67N + K70R
[27] = Human immunodeficiency virus 1, PANEL 44, D67N + K70R + T215F + K219E + M184V
[28] = Human immunodeficiency virus 1, PANEL 45, L210W + T215Y
[29] = Human immunodeficiency virus 1, PANEL 46, D67N + K70E
[30] = Human immunodeficiency virus 1, PANEL 47, D67N + K70E + M184V
[31] = Human immunodeficiency virus 1, PANEL 48, K70E + M184V

Compound: Cc1cn([C@H]2C[C@H](N=[N+]=[N-])[C@@H](CO)O2)c(=O)[nH]c1=O [ZDV, 3′-azido-2′,3′-dideoxythymdine]
- pIC50 [1, 3]: 7.77
- pIC50 [1, 4]: 5.02
- pIC50 [1, 5]: 5.79
- pIC50 [1, 6]: 7.77
- pIC50 [1, 7]: < 4.60
- pIC50 [1, 8]: 5.06
- pIC50 [1, 9]: 7.92
- pIC50 [1, 10]: 7.96
- pIC50 [1, 11]: 7.96
- pIC50 [1, 12]: 8.22
- pIC50 [1, 13]: 5.59
- pIC50 [1, 14]: 5.38
- pIC50 [1, 15]: 7.85
- pIC50 [1, 16]: 8.05
- pIC50 [1, 17]: 7.85
- pIC50 [1, 18]: 5.98
- pIC50 [1, 19]: 7.15
- pIC50 [1, 20]: 6.25
- pIC50 [1, 21]: 6.75
- pIC50 [1, 22]: 5.57
- pIC50 [1, 23]: 5.57
- pIC50 [1, 24]: 7.06
- pIC50 [1, 25]: 6.97
- pIC50 [1, 26]: 6.11
- pIC50 [1, 27]: 6.72
- pIC50 [1, 28]: 6.68
- pIC50 [1, 29]: 8.22
- pIC50 [1, 30]: 8.40
- pIC50 [1, 31]: 8.40
- Antagonism Volume, Result 1 [2]: −67.8 nM^2 %, μM^2 % or nMμM %
- Antagonism Volume, Result 2 [2]: 0 nM^2 %, μM^2 % or nMμM %
- Antagonism Volume, Result 3 [2]: −0.77 nM^2 %, μM^2 % or nMμM %
- Mean Antagonism Volume (n = 3) [2]: −21.7 nM^2 %, μM^2 % or nMμM %
- Mean Synergy Volume (n = 3) [2]: 11.5 nM^2 %, μM^2 % or nMμM %
- Synergy Volume, Result 1 [2]: 5.01 nM^2 %, μM^2 % or nMμM %
- Synergy Volume, Result 2 [2]: 32.7 nM^2 %, μM^2 % or nMμM %
- Synergy Volume, Result 3 [2]: 0 nM^2 %, μM^2 % or nMμM %

Compound: Nc1nc(=O)n(C2CSC(CO)O2)cc1F (stereo not shown) [FTC, 2-hydroxymethyl-5-(5-fluorocytosin-1-yl)-1,3-oxathiolane]
- pIC50 ([1]; Human immunodeficiency virus 1, PANEL 1, WT): 6.05
- pIC50 [1, 3]: 5.80
- pIC50 [1, 4]: 5.24
- pIC50 [1, 5]: < 4.00
- pIC50 [1, 6]: < 4.00
- pIC50 [1, 7]: 4.53
- pIC50 [1, 8]: < 4.00
- pIC50 [1, 9]: 4.71
- pIC50 [1, 10]: < 4.00
- pIC50 [1, 11]: 5.67
- pIC50 [1, 12]: < 4.00
- pIC50 [1, 13]: 4.46
- pIC50 [1, 14]: < 4.00
- pIC50 [1, 15]: 5.77
- pIC50 [1, 16]: < 4.00
- pIC50 [1, 17]: 4.89
- pIC50 [1, 18]: 5.58
- pIC50 [1, 19]: < 4.00
- pIC50 [1, 20]: 5.50
- pIC50 [1, 21]: < 4.00
- pIC50 [1, 22]: 5.37
- pIC50 [1, 23]: 5.67
- pIC50 [1, 24]: < 4.00
- pIC50 [1, 25]: < 4.00
- pIC50 [1, 26]: 5.48
- pIC50 [1, 27]: < 4.00
- pIC50 [1, 28]: 5.58
- pIC50 [1, 29]: 5.47
- pIC50 [1, 30]: < 4.00
- pIC50 [1, 31]: < 4.00
- IC50 Fold Change ([1]; PANEL 1, WT): 0.78
- IC50 Fold Change ([1]; PANEL 2, WT): 1.38
- IC50 Fold Change ([1]; PANEL 3, 6 TAMs, no 184): 5.02
- IC50 Fold Change ([1]; PANEL 6, 6 TAMs + 184): >87.6048
- IC50 Fold Change ([1]; PANEL 7, 184V): >87.6048
- IC50 Fold Change ([1]; PANEL 9, 69ins, no 184): 26.00
- IC50 Fold Change ([1]; PANEL 12, 69ins + 184): >87.6048
- IC50 Fold Change ([1]; PANEL 14, 65R, no 184): 17.00
- IC50 Fold Change ([1]; PANEL 15, 65R + 184V): >87.6048
- IC50 Fold Change ([1]; PANEL 17, L74V): 1.87
- IC50 Fold Change ([1]; PANEL 19, L74V + M184V): >87.6048
- IC50 Fold Change ([1]; PANEL 26, 151M, no 184): 30.00
- IC50 Fold Change ([1]; PANEL 28, 151M + 184): >87.6048
- IC50 Fold Change ([1]; PANEL 29, L74V − SDM): 1.47
- IC50 Fold Change ([1]; PANEL 30, M184V − SDM): >87.6048
- IC50 Fold Change ([1]; PANEL 31, K65R − SDM): 11.00
- IC50 Fold Change ([1]; PANEL 33, T215Y): 2.31
- IC50 Fold Change ([1]; PANEL 34, T215Y + M184V): >87.6048
- IC50 Fold Change ([1]; PANEL 35, M41L + T215Y): 2.74
- IC50 Fold Change ([1]; PANEL 37, M41L + T215Y + M184V): >87.6048
- IC50 Fold Change ([1]; PANEL 38, M41L + L210W + T215Y): 3.70
- IC50 Fold Change ([1]; PANEL 39, M41L + L210W + T215Y): 1.89
- IC50 Fold Change ([1]; PANEL 40, M41L + L210W + T215Y + M184V): >87.6048
- IC50 Fold Change ([1]; PANEL 41, M41L + L210W + T215Y + M184V): >87.6048
- IC50 Fold Change ([1]; PANEL 42, D67N + K70R): 2.87
- IC50 Fold Change ([1]; PANEL 44, D67N + K70R + T215F + K219E + M184V): >87.6048
- IC50 Fold Change ([1]; PANEL 45, L210W + T215Y): 2.29
- IC50 Fold Change ([1]; PANEL 46, D67N + K70E): 2.97
- IC50 Fold Change ([1]; PANEL 47, D67N + K70E + M184V): >87.6048
- IC50 Fold Change ([1]; PANEL 48, K70E + M184V): >87.6048
- Antagonism Volume, Result 1 [2]: 0 nM^2 %, μM^2 % or nMμM %
- Antagonism Volume, Result 2 [2]: 0 nM^2 %, μM^2 % or nMμM %
- Antagonism Volume, Result 3 [2]: 0 nM^2 %, μM^2 % or nMμM %
- Mean Antagonism Volume (n = 3) [2]: 0 nM^2 %, μM^2 % or nMμM %
- Mean Synergy Volume (n = 3) [2]: 72.5 nM^2 %, μM^2 % or nMμM %
- Synergy Volume, Result 1 [2]: 61.5 nM^2 %, μM^2 % or nMμM %
- Synergy Volume, Result 2 [2]: 72.0 nM^2 %, μM^2 % or nMμM %
- Synergy Volume, Result 3 [2]: 84.1 nM^2 %, μM^2 % or nMμM %
- Interpretation of Antiviral Results (MacSynergy) ([2]; two-drug combination (with CMX157; control d4T/RBV), CEM-SS cells, listed as emtricitabine): slightly synergistic
